Tested on: mTOR pathway
Experiment: Western blot of mTOR pathway effectors in hMSC
Assay type: cell-based, human
Experimental: Three times 10^6 hMSC were lysed in mammalian cell lysis buffer (Mammalian cell lysis kit, Sigma-Aldrich, Dorset, UK) containing 250 mM Tris-5 mM EDTA, 750 mM sodium chloride, 0.5% sodium dodecyl sulphate, 2.5% deoxycholic acid and 5% Igepal supplemented with 10 μl of Proteinase inhibitors cocktail (Sigma-Aldrich, Dorset, UK) containing 4-(2-aminoethyl) benzenesulfonyl fluoride (AEBSF), pepstatin A, bestatin, leupeptin, aprotinin and trans-epoxysuccinyl-L-leucyl-amido(4-guanidino)-butane (E-64) according to manufacturer instruction. Phosphatase inhibitor cocktail (Sigma) was also added when preparing lysates for the detection of AKT, pAKT, P70S6K, and p-P70S6K.
Protein lysates (50 μg) were diluted in equal volume of 2× Laemmli buffer (Gibco) containing Dithiothreitol (DTT, Sigma,UK). The samples were heated at 95° C. for 5 minutes and loaded on a 12% Tris-glycine gel. After electro-blotting, membranes were blocked with 5% Bovine serum albumin (BSA) in 0.1% Tween 20 in PBS (PBS-T) for detection of glyceraldehyde-3-phosphate dehydrogenase (GAPDH) and 5% dry milk in PBS-T for detection of unprenylated RAP1A (Santacruz Biotechnology, Santa Cruz, USA). In case of P-AKT, P-70S6K membranes were blocked with 5%BSA in 1× tris buffered saline and 0.1% tween-20 (TBS-T), where for AKT and P70S6K membranes were blocked with 5% dry milk in TBS-T. All membranes were blocked for 2 hours at room temperature. The antibody sc1482 for the detection of RAP1A (Santacruz, USA) was diluted in TBS-T at 1:1000. Antibodies for the detection of AKT, P-AKT, P-70S6K AND PP70S6K, (Cell Signalling Technologies, USA) were diluted at 1:1000. GAPDH antibody (Abcam, Cambridge) was diluted at 1:30000. […] Detection was carried out using enhanced chemi-luminescence plus ECL reaction kit (GE Healthcare, Buckinghamshire, UK) and quantification of protein expression was carried out using image J software.
To test this, the inventors assessed the phosphorylation state of two effectors downstream of TORC1 and TORC2, p-P70S6K and pAKT (Ser473) respectively (FIG. 7A), in hMSC in presence or absence of Zol. […]

[1] = hMSC exposed to Zol (1 μM) for 72 h, n=3

Compound: O=P(O)(O)C(O)(Cn1ccnc1)P(=O)(O)O [Zoledronate]
- mTOR signaling (p-mTOR, p-P70S6K, p-AKT, p-FOXO3A), FIG. 12 (hMSC exposed to Zol): inhibition of mTOR signaling
- p-P70S6K [1]: significant decrease
- pAKT (Ser473) [1]: significant decrease

Reference: US20160039852A1, “THERAPEUTIC USES OF BISPHOSPHONATES” (THE UNIVERSITY OF SHEFFIELD, priority 2013, published 2016)
